According to US20100036088A1, “Selective poly-N-substituted glycine antibiotics” (priority 2008, published 2010):
Square brackets hold non-standard residues; d marks the D form. Peptide text beside a SMILES is read from it. Nspe = C[C@H](NCC(=O)O)c1ccccc1; Nlys = NCCCCNCC(=O)O

Legend:
[1] = test system: A549 lung epithelial cells; test: MTS assay, metabolic inhibition
Protocol: The biocompatibility of selected oligomers with A549 lung epithelial cells was evaluated using the MTS [3-(4,5-dimethylthiazol-2-yl)-5-(3-carboxymethoxyphenyl)-2-(4-sulfophenyl)-2H-tetrazolium] assay.
MTS Assays. A549 carcinoma-derived lung epithelial cells (ATTC CCL-185) were cultured in Ham's F12K media (ATTC, Manassas, Va.). A peptoid solution plate (100 μL/well) was prepared by serial dilution of aqueous peptoid stocks in media. Peptoid solutions were transferred onto a 96-well plate of day-old cell monolayers containing 100 μL/well media with ˜5000 cells/well. MTS reagent (Promega Corporation, Madison, Wis.) (40 μL/well) was added to each well and the plate was incubated at 37° C. for 3 h, after which absorbance at 490 nm was determined. Percent inhibition was determined as [1−(A−Atest blank)/(Acontrol−Ablank)]×100, where A is the absorbance of the test well and Acontrol the average absorbance of wells with cells exposed to media and MTS (no peptoid). Atest blank (media, MTS, and peptoid) and Ablank (media and MTS) were background absorbances measured in the absence of cells. The average of six replicates are reported, and error bars show one standard deviation.

[2] = test system: B. subtilis BR151; format: cell-based; conditions: Table 1
Procedure, shortened: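 MIC by broth microdilution per CLSI M7-A6, with 5×10^5 CFU/ml inoculum in Mueller-Hinton broth mixed 1:1 with 1:2 serial peptoid dilutions. Values reproducible across three independent experiments, each run as two parallel trials.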

[3] = test system: Staphyloccus aureus (ATCC #25923); test: Murine intraperitoneal infection model; format: in vivo; conditions: mouse, 4 mg/kg I.P.; eleven mice treated with 1-Nhis6,12
Protocol: Using a murine peritoneal injection mouse model, the ability of peptoids to treat infection was evaluated in vivo. The results from three separate studies of peptoid 1 and two of peptoid 1-Nhis6,12 against saline treated controls are shown in FIG. 7. The horizontal line represents the geometric mean of each population.
Murine intraperitoneal infection model. Bacteria was prepared by inoculating 5 mL of MHB with a single colony of Staphyloccus aureus (ATCC #25923) from a freshly streaked plate and grown overnight at 37 C. The following morning, the bacteria was subcultured by diluting 1/3 in MHB and grown for approximately 1.5 hours. The bacteria were then diluted 10-fold in a 5% mucin in PBS solution and thoroughly mixed. A sample was reserved to later determine the amount of bacteria the mice received.
Mice were weighed, marked, and injected I.P. with 200 uL of S. aureus inoculum. Four hours post infection, mice were treated I.P. with 4 mg/kg peptoid (˜100 ug per mouse). The infection is allowed to proceed overnight. Mice were euthanized by CO2 asphyxiation after 24 hours, and the peritoneal cavity was exposed and lavaged with 5 mL PBS. The lavage was mixed and reserved on ice until plating. […] Colonies were counted the following day, and the CFU/ml of each sample was calculated. […]

Structure (SMILES) | ID10 relative to that of pexiganan [1] | B. subtilis MIC [2] | mice that died prematurely during the exposure period [3]
C[C@@H](c1ccccc1)N(CC(N)=O)C(=O)CN(C(=O)CN(CCCCN)C(=O)CN(C(=O)CN(C(=O)CN(CCCCN)C(=O)[C@@H]1CCCN1C(=O)CN(C(=O)CN(CCCCN)C(=O)CN(C(=O)CN(C(=O)CNCCCCN)[C@@H](C)c1ccccc1)[C@@H](C)c1ccccc1)[C@@H](C)c1ccccc1)[C@@H](C)c1ccccc1)[C@@H](C)c1ccccc1)[C@@H](C)c1ccccc1 [1-Pro6, H-Nlys-Nspe-Nspe-Nlys-Nspe-L-Pro-(Nlys-Nspe-Nspe)2-NH2] (H-[Nlys][Nspe][Nspe][Nlys][Nspe]P[Nlys][Nspe][Nspe][Nlys][Nspe][Nspe]-NH2) | 10 times | – | –
C[C@@H](c1ccccc1)N(CC(N)=O)C(=O)CN(C(=O)CN(CCCCN)C(=O)CN(C(=O)CN(C(=O)CN(CCCCN)C(=O)CN(C(=O)CN(C(=O)CN(CCCCN)C(=O)CN(C(=O)CN(C(=O)CNCCCCN)[C@@H](C)c1ccccc1)[C@@H](C)c1ccccc1)[C@@H](C)c1ccccc1)[C@@H](C)c1ccccc1)[C@@H](C)c1ccccc1)[C@@H](C)c1ccccc1)[C@@H](C)c1ccccc1 [compound 1, H-(NLys-Nspe-Nspe)4-NH2] (H-[Nlys][Nspe][Nspe][Nlys][Nspe][Nspe][Nlys][Nspe][Nspe][Nlys][Nspe][Nspe]-NH2) | – | 0.88 µM | no mice
